In patent US8952024B2, “Herbicidal pyrimidone derivatives” (E I du Pont de Nemours and Company, priority 2009, dated 2015):

Experiments:
Experiment in all cases: Test B pre-/postemergence plant response
Assay type in all cases: in vivo
[1] = system: Surinam grass (Brachiaria decumbens); conditions: for Surinam Grass plant response rating (0 to 100 scale): 62 g ai/ha, postemergence, 0 is no effect, 100 is complete control
Summary of the method: (§1)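 Visual injury, 0–100 scale (100 = complete control), rated against controls after 13 to 15 days in greenhouse. Pre-emergence: seeds in loam/sand soil, treated at planting. Post-emergence: 1- to 4-leaf plants (2 to 18 cm) in peat/vermiculite medium. Compounds formulated in non-phytotoxic solvent with surfactant.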

[2] = system: cocklebur (Xanthium strumarium); conditions: for Cocklebur plant response rating (0 to 100 scale): 62 g ai/ha, postemergence, 0 is no effect, 100 is complete control
Summary of the method: as §1

kochia (Kochia scoparia) = conditions: for Kochia plant response rating (0 to 100 scale): 62 g ai/ha, postemergence, 0 is no effect, 100 is complete control
Summary of the method: as §1

[3] = system: lambsquarters (Chenopodium album); conditions: for Lambsquarters plant response rating (0 to 100 scale): 62 g ai/ha, postemergence, 0 is no effect, 100 is complete control
Summary of the method: as §1

[4] = system: large crabgrass (Digitaria sanguinalis); conditions: for Crabgrass, Large plant response rating (0 to 100 scale): 62 g ai/ha, postemergence, 0 is no effect, 100 is complete control
Summary of the method: as §1

wild oat (Avena fatua) = conditions: for Oat, Wild plant response rating (0 to 100 scale): 62 g ai/ha, postemergence, 0 is no effect, 100 is complete control
Summary of the method: as §1

[5] = system: woolly cupgrass (Eriochloa villosa); conditions: for Cupgrass, Woolly plant response rating (0 to 100 scale): 62 g ai/ha, postemergence, 0 is no effect, 100 is complete control
Summary of the method: as §1

[6] = system: yellow nutsedge (Cyperus esculentus); conditions: for Nutsedge, Yellow plant response rating (0 to 100 scale): 62 g ai/ha, postemergence, 0 is no effect, 100 is complete control
Summary of the method: as §1

[7] = Postemergence, 31 g ai/ha, 0 to 100 scale (0 no effect, 100 complete control)
[8] = Postemergence, 125 g ai/ha, scale 0 to 100 (0 no effect, 100 complete control)
[9] = Postemergence, 250 g ai/ha, scale 0 to 100 (0 no effect, 100 complete control)
[10] = Postemergence, 250 g ai/ha, scale 0 to 100 (0 no effect, 100 complete control), 13 to 15 days

SMILES: COCCCn1c(-c2cccc(F)c2)ncc(C(=O)C2=C(O)CCCC2=O)c1=O [Compound 126]
- Surinam Grass plant response rating (0 to 100 scale) ([1]; 13 to 15 days): 80
- Plant response rating, Surinam Grass [1, 7]: 70
- Plant response rating, Surinam Grass [1, 8]: 85
- Plant response rating, Surinam Grass [1, 9]: 98
- Cocklebur plant response rating (0 to 100 scale) ([2]; 13 to 15 days): 65
- Plant response rating, Cocklebur [2, 7]: 15
- Plant response rating, Cocklebur [2, 8]: 80
- Plant response rating, Cocklebur [2, 9]: 98
- Kochia plant response rating (0 to 100 scale) (kochia (Kochia scoparia); 13 to 15 days): 25
- Plant response rating, Kochia (kochia (Kochia scoparia); [7]): 10
- Plant response rating, Kochia (kochia (Kochia scoparia); [8]): 25
- Plant response rating, Kochia (kochia (Kochia scoparia); [9]): 85
- Lambsquarters plant response rating (0 to 100 scale) ([3]; 13 to 15 days): 85
- Plant response rating, Lambsquarters [3, 7]: 70
- Plant response rating, Lambsquarters [3, 8]: 85
- Plant response rating, Lambsquarters [3, 9]: 98
- Crabgrass, Large plant response rating (0 to 100 scale) ([4]; 13 to 15 days): 80
- Plant response rating, Crabgrass, Large [4, 7]: 75
- Plant response rating, Crabgrass, Large [4, 8]: 85
- Plant response rating, Crabgrass, Large [4, 9]: 90
- Oat, Wild plant response rating (0 to 100 scale) (wild oat (Avena fatua); 13 to 15 days): 10
- Plant response rating, Oat, Wild (wild oat (Avena fatua); [7]): 5
- Plant response rating, Oat, Wild (wild oat (Avena fatua); [8]): 35
- Plant response rating, Oat, Wild (wild oat (Avena fatua); [9]): 50
- Cupgrass, Woolly plant response rating (0 to 100 scale) ([5]; 13 to 15 days): 75
- Plant response rating, Cupgrass, Woolly [5, 7]: 65
- Plant response rating, Cupgrass, Woolly [5, 8]: 85
- Plant response rating, Cupgrass, Woolly [5, 9]: 90
- Nutsedge, Yellow plant response rating (0 to 100 scale) ([6]; 13 to 15 days): 75
- Plant response rating, Nutsedge, Yellow [6, 7]: 65
- Plant response rating, Nutsedge, Yellow [6, 8]: 80
- Plant response rating, Nutsedge, Yellow [6, 9]: 80

SMILES: CCCn1c(-c2cccc(F)c2)ncc(C(=O)C2=C(O)CCCC2=O)c1=O [Compound 127]
- Surinam Grass plant response rating (0 to 100 scale) ([1]; 13 to 15 days): 75
- Plant response rating, Surinam Grass [1, 7]: 75
- Plant response rating, Surinam Grass [1, 8]: 85
- Plant response rating, Surinam Grass [1, 10]: 90
- Cocklebur plant response rating (0 to 100 scale) ([2]; 13 to 15 days): 95
- Plant response rating, Cocklebur [2, 7]: 75
- Plant response rating, Cocklebur [2, 8]: 95
- Plant response rating, Cocklebur [2, 10]: 100
- Kochia plant response rating (0 to 100 scale) (kochia (Kochia scoparia); 13 to 15 days): 98
- Plant response rating, Kochia (kochia (Kochia scoparia); [7]): 45
- Plant response rating, Kochia (kochia (Kochia scoparia); [8]): 100
- Plant response rating, Kochia (kochia (Kochia scoparia); [10]): 100
- Lambsquarters plant response rating (0 to 100 scale) ([3]; 13 to 15 days): 85
- Plant response rating, Lambsquarters [3, 7]: 75
- Plant response rating, Lambsquarters [3, 8]: 90
- Plant response rating, Lambsquarters [3, 10]: 95
- Crabgrass, Large plant response rating (0 to 100 scale) ([4]; 13 to 15 days): 85
- Plant response rating, Crabgrass, Large [4, 7]: 80
- Plant response rating, Crabgrass, Large [4, 8]: 90
- Plant response rating, Crabgrass, Large [4, 10]: 95
- Oat, Wild plant response rating (0 to 100 scale) (wild oat (Avena fatua); 13 to 15 days): 10
- Plant response rating, Oat, Wild (wild oat (Avena fatua); [7]): 5
- Plant response rating, Oat, Wild (wild oat (Avena fatua); [8]): 25
- Plant response rating, Oat, Wild (wild oat (Avena fatua); [10]): 60
- Cupgrass, Woolly plant response rating (0 to 100 scale) ([5]; 13 to 15 days): 75
- Plant response rating, Cupgrass, Woolly [5, 7]: 75
- Plant response rating, Cupgrass, Woolly [5, 8]: 85
- Plant response rating, Cupgrass, Woolly [5, 10]: 85
- Nutsedge, Yellow plant response rating (0 to 100 scale) ([6]; 13 to 15 days): 70
- Plant response rating, Nutsedge, Yellow [6, 7]: 65
- Plant response rating, Nutsedge, Yellow [6, 8]: 75
- Plant response rating, Nutsedge, Yellow [6, 10]: 80

SMILES: O=C1CCCC(O)=C1C(=O)c1cnc(-c2ccccc2)n(C2CCCCC2)c1=O [Compound 128, 3-cyclohexyl-5-[(2-hydroxy-6-oxo-1-cyclohexen-1-yl)carbonyl]-2-phenyl-4(3H)-pyrimidinone]
- Surinam Grass plant response rating (0 to 100 scale) ([1]; 13 to 15 days): 80
- pest or weed control at 31 g/ha ([1]; Urochloa decumbens, post-emergence, Postemergence, 31 g ai/ha, 0 to 100 scale (0 no effect, 100 complete control), read-out: Plant response rating, Surinam Grass): 50%
- pest or weed control at 125 g/ha ([1]; Urochloa decumbens, post-emergence, Postemergence, 125 g ai/ha, scale 0 to 100 (0 no effect, 100 complete control), read-out: Plant response rating, Surinam Grass): 85%
- pest or weed control at 250 g/ha ([1]; Urochloa decumbens, post-emergence, Postemergence, 250 g ai/ha, scale 0 to 100 (0 no effect, 100 complete control), 13 to 15 days, read-out: Plant response rating, Surinam Grass): 85%
- Cocklebur plant response rating (0 to 100 scale) ([2]; 13 to 15 days): 98
- pest or weed control at 31 g/ha ([2]; Xanthium strumarium, post-emergence, Postemergence, 31 g ai/ha, 0 to 100 scale (0 no effect, 100 complete control), read-out: Plant response rating, Cocklebur): 98%
- pest or weed control at 125 g/ha ([2]; Xanthium strumarium, post-emergence, Postemergence, 125 g ai/ha, scale 0 to 100 (0 no effect, 100 complete control), read-out: Plant response rating, Cocklebur): 100%
- pest or weed control at 250 g/ha ([2]; Xanthium strumarium, post-emergence, Postemergence, 250 g ai/ha, scale 0 to 100 (0 no effect, 100 complete control), 13 to 15 days, read-out: Plant response rating, Cocklebur): 100%
- Kochia plant response rating (0 to 100 scale) (kochia (Kochia scoparia); 13 to 15 days): 85
- pest or weed control at 31 g/ha (kochia (Kochia scoparia); Bassia scoparia, post-emergence, Postemergence, 31 g ai/ha, 0 to 100 scale (0 no effect, 100 complete control), read-out: Plant response rating, Kochia): 60%
- pest or weed control at 125 g/ha (kochia (Kochia scoparia); Bassia scoparia, post-emergence, Postemergence, 125 g ai/ha, scale 0 to 100 (0 no effect, 100 complete control), read-out: Plant response rating, Kochia): 95%
- pest or weed control at 250 g/ha (kochia (Kochia scoparia); Bassia scoparia, post-emergence, Postemergence, 250 g ai/ha, scale 0 to 100 (0 no effect, 100 complete control), 13 to 15 days, read-out: Plant response rating, Kochia): 98%
- Lambsquarters plant response rating (0 to 100 scale) ([3]; 13 to 15 days): 98
- pest or weed control at 31 g/ha ([3]; Chenopodium album, post-emergence, Postemergence, 31 g ai/ha, 0 to 100 scale (0 no effect, 100 complete control), read-out: Plant response rating, Lambsquarters): 95%
- pest or weed control at 125 g/ha ([3]; Chenopodium album, post-emergence, Postemergence, 125 g ai/ha, scale 0 to 100 (0 no effect, 100 complete control), read-out: Plant response rating, Lambsquarters): 100%
- pest or weed control at 250 g/ha ([3]; Chenopodium album, post-emergence, Postemergence, 250 g ai/ha, scale 0 to 100 (0 no effect, 100 complete control), 13 to 15 days, read-out: Plant response rating, Lambsquarters): 100%
- Crabgrass, Large plant response rating (0 to 100 scale) ([4]; 13 to 15 days): 85
- pest or weed control at 31 g/ha ([4]; Digitaria sanguinalis, post-emergence, Postemergence, 31 g ai/ha, 0 to 100 scale (0 no effect, 100 complete control), read-out: Plant response rating, Crabgrass, Large): 85%
- pest or weed control at 125 g/ha ([4]; Digitaria sanguinalis, post-emergence, Postemergence, 125 g ai/ha, scale 0 to 100 (0 no effect, 100 complete control), read-out: Plant response rating, Crabgrass, Large): 95%
- pest or weed control at 250 g/ha ([4]; Digitaria sanguinalis, post-emergence, Postemergence, 250 g ai/ha, scale 0 to 100 (0 no effect, 100 complete control), 13 to 15 days, read-out: Plant response rating, Crabgrass, Large): 100%
- Oat, Wild plant response rating (0 to 100 scale) (wild oat (Avena fatua); 13 to 15 days): 50
- pest or weed control at 31 g/ha (wild oat (Avena fatua); Avena fatua, post-emergence, Postemergence, 31 g ai/ha, 0 to 100 scale (0 no effect, 100 complete control), read-out: Plant response rating, Oat, Wild): 40%
- pest or weed control at 125 g/ha (wild oat (Avena fatua); Avena fatua, post-emergence, Postemergence, 125 g ai/ha, scale 0 to 100 (0 no effect, 100 complete control), read-out: Plant response rating, Oat, Wild): 60%
- pest or weed control at 250 g/ha (wild oat (Avena fatua); Avena fatua, post-emergence, Postemergence, 250 g ai/ha, scale 0 to 100 (0 no effect, 100 complete control), 13 to 15 days, read-out: Plant response rating, Oat, Wild): 80%
- Cupgrass, Woolly plant response rating (0 to 100 scale) ([5]; 13 to 15 days): 90
- pest or weed control at 31 g/ha ([5]; Eriochloa villosa, post-emergence, Postemergence, 31 g ai/ha, 0 to 100 scale (0 no effect, 100 complete control), read-out: Plant response rating, Cupgrass, Woolly): 85%
- pest or weed control at 125 g/ha ([5]; Eriochloa villosa, post-emergence, Postemergence, 125 g ai/ha, scale 0 to 100 (0 no effect, 100 complete control), read-out: Plant response rating, Cupgrass, Woolly): 90%
- pest or weed control at 250 g/ha ([5]; Eriochloa villosa, post-emergence, Postemergence, 250 g ai/ha, scale 0 to 100 (0 no effect, 100 complete control), 13 to 15 days, read-out: Plant response rating, Cupgrass, Woolly): 95%
- Nutsedge, Yellow plant response rating (0 to 100 scale) ([6]; 13 to 15 days): 35
- pest or weed control at 31 g/ha ([6]; Cyperus, post-emergence, Postemergence, 31 g ai/ha, 0 to 100 scale (0 no effect, 100 complete control), read-out: Plant response rating, Nutsedge, Yellow): 20%
- pest or weed control at 125 g/ha ([6]; Cyperus, post-emergence, Postemergence, 125 g ai/ha, scale 0 to 100 (0 no effect, 100 complete control), read-out: Plant response rating, Nutsedge, Yellow): 60%
- pest or weed control at 250 g/ha ([6]; Cyperus, post-emergence, Postemergence, 250 g ai/ha, scale 0 to 100 (0 no effect, 100 complete control), 13 to 15 days, read-out: Plant response rating, Nutsedge, Yellow): 60%
